Test results as given in patent US11446287B2, “Compounds and methods for EP300 or CBP modulation and indications therefor” (Opna Immuno-Oncology SA, priority 2019, dated 2022).

biological target: T1, Recombinant human EP300 containing the bromodomain (EP300-BD (1040-1161)) (Homo sapiens, UniProt Q09472); assay: EP300 Alphascreen binding assay
T1 construct: Recombinant human EP300 bromodomain (EP300-BD (1040-1161)); made in house; host or cells: E. coli BL21-CodonPlus (DE3), modified pET vector
T1 sequence (Q09472 1040-1161): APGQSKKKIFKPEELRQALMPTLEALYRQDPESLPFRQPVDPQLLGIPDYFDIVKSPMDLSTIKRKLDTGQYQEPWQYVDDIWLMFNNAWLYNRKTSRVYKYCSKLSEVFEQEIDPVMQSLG
Outline: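 Displacement of a biotinylated acetyl-K56 histone H3 peptide from the N-His bromodomain construct (1040-1161) measured by AlphaScreen proximity, beads at 7.5 μg/ml final, read 60 min after addition. Protein, peptide and compound first incubated 1 h at room temperature, pH 7.5 HEPES buffer; IC50 by four-parameter logistic fit.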

`Cc1noc(C)c1-c1cnc2c(c1)c(-c1c(Cl)cc(C(=O)O)cc1Cl)cn2C(C)c1ccccn1` (stereo not drawn) [P-0095, 3,5-dichloro-4-(5-(3,5-dimethylisoxazol-4-yl)-1-(1-(pyridin-2-yl)ethyl)-1H-pyrrolo[2,3-b]pyridin-3-yl)benzoic acid] and `Cc1noc(C)c1-c1cnc2c(c1)c(-c1c(F)cc(C(=O)O)cc1F)cn2C(C)c1ccccn1` (stereo not drawn) [P-0094, 4-(5-(3,5-dimethylisoxazol-4-yl)-1-(1-(pyridin-2-yl)ethyl)-1H-pyrrolo[2,3-b]pyridin-3-yl)-3,5-difluorobenzoic acid] fall in the same range of IC50: 0.1 to 1000 nM for the first, 0.1 to 1000 nM for the second.

`COc1cc(C(=O)O)cc(OC)c1-n1cc(CC2CCC2)c2ncc(-c3c(C)noc3C)cc21` [P-0067, 4-(3-(cyclobutylmethyl)-6-(3,5-dimethylisoxazol-4-yl)-1H-pyrrolo[3,2-b]pyridin-1-yl)-3,5-dimethoxybenzoic acid] and `COc1c(-n2cc(CC3CCC3)c3ncc(-c4c(C)noc4C)cc32)ccc(C(=O)O)c1F` [P-0087, 4-(3-(cyclobutylmethyl)-6-(3,5-dimethylisoxazol-4-yl)-1H-pyrrolo[3,2-b]pyridin-1-yl)-2-fluoro-3-methoxybenzoic acid] fall in the same range of IC50: 0.1 to 1000 nM for the first, 0.1 to 1000 nM for the second.

`Cc1noc(C)c1-c1cnc2c(c1)c(-c1cccc(C(=O)O)c1)cn2C(C1CCC1)C1CCC1` [P-0072, 3-(1-(dicyclobutylmethyl)-5-(3,5-dimethylisoxazol-4-yl)-1H-pyrrolo[2,3-b]pyridin-3-yl)benzoic acid] and `Cc1noc(C)c1-c1cnc2c(c1)c(-c1cccc(C(=O)O)c1)cn2C(C1CC1)C1CC1` [P-0058, 3-(1-(dicyclopropylmethyl)-5-(3,5-dimethylisoxazol-4-yl)-1H-pyrrolo[2,3-b]pyridin-3-yl)benzoic acid] fall in the same range of IC50: 0.1 to 1000 nM for the first, 0.1 to 1000 nM for the second.

`Cc1noc(C)c1-c1cnc2c(c1)c(-c1cccc(C(=O)O)c1)cn2C(c1ccccn1)C1CCC1` (stereo not drawn) [P-0073, 3-(1-(cyclobutyl(pyridin-2-yl)methyl)-5-(3,5-dimethylisoxazol-4-yl)-1H-pyrrolo[2,3-b]pyridin-3-yl)benzoic acid] and `Cc1noc(C)c1-c1cnc2c(c1)c(-c1ccc(C(=O)O)cc1)cn2C(c1ccccn1)C1CCCCC1` (stereo not drawn) [P-0004, 4-(1-(cyclohexyl(pyridin-2-yl)methyl)-5-(3,5-dimethylisoxazol-4-yl)-1H-pyrrolo[2,3-b]pyridin-3-yl)benzoic acid] fall in the same range of IC50: 0.1 to 1000 nM for the first, 0.1 to 1000 nM for the second.

`Cc1noc(C)c1-c1cnc2c(c1)c(-c1c(F)ccc(NS(C)(=O)=O)c1F)cn2C(C)c1ccccn1` (stereo not drawn) [P-0096, N-(3-(5-(3,5-dimethylisoxazol-4-yl)-1-(1-(pyridin-2-yl)ethyl)-1H-pyrrolo[2,3-b]pyridin-3-yl)-2,4-difluorophenyl)methanesulfonamide] and `Cc1noc(C)c1-c1cnc2c(c1)c(-c1ccc(C(=O)O)cc1OC(F)F)cn2[C@@H](C)c1ccccn1` [P-0071, (S)-3-(difluoromethoxy)-4-(5-(3,5-dimethylisoxazol-4-yl)-1-(1-(pyridin-2-yl)ethyl)-1H-pyrrolo[2,3-b]pyridin-3-yl)benzoic acid] fall in the same range of IC50: 0.1 to 1000 nM for the first, 0.1 to 1000 nM for the second.

`Cc1noc(C)c1-c1cnc2c(c1)c(C1=CCC(C(=O)O)CC1)cn2Cc1ccccc1` (stereo not drawn) [P-0093, 4-(1-benzyl-5-(3,5-dimethylisoxazol-4-yl)-1H-pyrrolo[2,3-b]pyridin-3-yl)cyclohex-3-ene-1-carboxylic acid] and `Cc1noc(C)c1-c1cnc2c(c1)c(-c1cccc(C(=O)NO)c1)cn2Cc1ccccc1` [P-0079, 3-(1-benzyl-5-(3,5-dimethylisoxazol-4-yl)-1H-pyrrolo[2,3-b]pyridin-3-yl)-N-hydroxybenzamide] fall in the same range of IC50: 0.1 to 1000 nM for the first, 0.1 to 1000 nM for the second.

`Cc1noc(C)c1-c1cnc2c(c1)c(-c1cccc(C(=O)NC#N)c1)cn2Cc1ccccc1` [P-0078, 3-(1-benzyl-5-(3,5-dimethylisoxazol-4-yl)-1H-pyrrolo[2,3-b]pyridin-3-yl)-N-cyanobenzamide] and `Cc1noc(C)c1-c1cnc2c(c1)c(-c1cccc(C(=O)NS(C)(=O)=O)c1)cn2Cc1ccccc1` [P-0092, 3-(1-benzyl-5-(3,5-dimethylisoxazol-4-yl)-1H-pyrrolo[2,3-b]pyridin-3-yl)-N-(methylsulfonyl)benzamide] fall in the same range of IC50: 0.1 to 1000 nM for the first, 0.1 to 1000 nM for the second.

First: Cc1noc(C)c1-c1cnc2c(CC3CCC3)cn(-c3ccc(C#N)cc3)c2c1 [P-0076, 4-(3-(cyclobutylmethyl)-6-(3,5-dimethylisoxazol-4-yl)-1H-pyrrolo[3,2-b]pyridin-1-yl)benzonitrile]
Second: Cc1noc(C)c1-c1cnc2c(CC3CCC3)cn(-c3ccnc(C#N)c3)c2c1 [P-0077, 4-(3-(cyclobutylmethyl)-6-(3,5-dimethylisoxazol-4-yl)-1H-pyrrolo[3,2-b]pyridin-1-yl)picolinonitrile]
The IC50 of the first is higher: 1000 to 8000 nM for the first, 0.1 to 1000 nM for the second. The second is the more potent here.

`Cc1noc(C)c1-c1cnc2c(c1)c(-c1cccc(C(=O)O)c1)cn2C(=O)c1ccccc1` [P-0085, 3-(1-benzoyl-5-(3,5-dimethylisoxazol-4-yl)-1H-pyrrolo[2,3-b]pyridin-3-yl)benzoic acid] and `Cc1cccc(Cn2cc(-c3cccc(C(=O)O)c3)c3cc(-c4c(C)noc4C)cnc32)c1` [P-0062, 3-(5-(3,5-dimethylisoxazol-4-yl)-1-(3-methylbenzyl)-1H-pyrrolo[2,3-b]pyridin-3-yl)benzoic acid] fall in the same range of IC50: 0.1 to 1000 nM for the first, 0.1 to 1000 nM for the second.

`Cc1noc(C)c1-c1cnc2c(C(=O)C3CC3)c(O)n(-c3ccnc(C(=O)O)c3)c2c1` [P-0084, 4-(3-(cyclopropanecarbonyl)-6-(3,5-dimethylisoxazol-4-yl)-2-hydroxy-1H-pyrrolo[3,2-b]pyridin-1-yl)picolinic acid] and `Cc1noc(C)c1-c1cnc2c(CC3CC3)cn(-c3ccnc(C(=O)O)c3)c2c1` [P-0065, 4-(3-(cyclopropylmethyl)-6-(3,5-dimethylisoxazol-4-yl)-1H-pyrrolo[3,2-b]pyridin-1-yl)picolinic acid] fall in the same range of IC50: 0.1 to 1000 nM for the first, 0.1 to 1000 nM for the second.

`COc1cccc(Cn2cc(-c3cccc(C(=O)O)c3)c3cc(-c4c(C)noc4C)cnc32)c1` [P-0056, 3-(5-(3,5-dimethylisoxazol-4-yl)-1-(3-methoxybenzyl)-1H-pyrrolo[2,3-]pyridin-3-yl)benzoic acid] and `Cc1noc(C)c1-c1cnc2c(c1)c(-c1cccc(C(=O)O)c1)cn2Cc1cccc(Cl)c1` [P-0061, 3-(1-(3-chlorobenzyl)-5-(3,5-dimethylisoxazol-4-yl)-1H-pyrrolo[2,3-b]pyridin-3-yl)benzoic acid] fall in the same range of IC50: 0.1 to 1000 nM for the first, 0.1 to 1000 nM for the second.

First: Cc1noc(C)c1-c1cnc2c(c1)c(-c1ccc(C(=O)O)cc1)cn2C(C)c1ccccn1 (stereo not drawn) [P-0080, 4-(5-(3,5-dimethylisoxazol-4-yl)-1-(1-(pyridin-2-yl)ethyl)-1H-pyrrolo[2,3-b]pyridin-3-yl)benzoic acid]
Second: Cc1noc(C)c1-c1cnc2c(c1)c(-c1ccc(C(=O)O)cc1)cn2[C@@H](C)c1ccccn1 [P-0001, (S)-4-(5-(3,5-dimethylisoxazol-4-yl)-1-(1-(pyridin-2-yl)ethyl)-1H-pyrrolo[2,3-b]pyridin-3-yl)benzoic acid]
The IC50 of the first is higher: 1000 to 8000 nM for the first, 0.1 to 1000 nM for the second.

`Cc1noc(C)c1-c1cnc2c(C(=O)c3ccccc3Cl)cn(-c3ccnc(C(=O)O)c3)c2c1` [P-0089, 4-(3-(2-chlorobenzoyl)-6-(3,5-dimethylisoxazol-4-yl)-1H-pyrrolo[3,2-b]pyridin-1-yl)picolinic acid] and `Cc1noc(C)c1-c1cnc2c(C(=O)c3cccc(Cl)c3)cn(-c3ccnc(C(=O)O)c3)c2c1` [P-0088, 4-(3-(3-chlorobenzoyl)-6-(3,5-dimethylisoxazol-4-yl)-1H-pyrrolo[3,2-b]pyridin-1-yl)picolinic acid] fall in the same range of IC50: 0.1 to 1000 nM for the first, 0.1 to 1000 nM for the second.

`Cc1noc(C)c1-c1cnc2c(Cc3cccc(Cl)c3)cn(-c3ccnc(C(=O)O)c3)c2c1` [P-0090, 4-(3-(3-chlorobenzyl)-6-(3,5-dimethylisoxazol-4-yl)-1H-pyrrolo[3,2-b]pyridin-1-yl)picolinic acid] and `Cc1noc(C)c1-c1cnc2c(CC3CCC3)cn(-c3ccc(C(=O)O)cc3OC(F)F)c2c1` [P-0064, 4-(3-(cyclobutylmethyl)-6-(3,5-dimethylisoxazol-4-yl)-1H-pyrrolo[3,2-b]pyridin-1-yl)-3-(difluoromethoxy)benzoic acid] fall in the same range of IC50: 0.1 to 1000 nM for the first, 0.1 to 1000 nM for the second.

`Cc1noc(C)c1-c1cnc2c(c1)c(-c1cccc(S(N)(=O)=O)c1)cn2Cc1ccccc1` [P-0081, 3-(1-benzyl-5-(3,5-dimethylisoxazol-4-yl)-1H-pyrrolo[2,3-b]pyridin-3-yl)benzenesulfonamide] and `Cc1noc(C)c1-c1cnc2c(c1)c(-c1cccc(C(=O)O)c1)cn2Cc1cccc(C(F)(F)F)c1` [P-0063, 3-(5-(3,5-dimethylisoxazol-4-yl)-1-(3-(trifluoromethyl)benzyl)-1H-pyrrolo[2,3-b]pyridin-3-yl)benzoic acid] fall in the same range of IC50: 0.1 to 1000 nM for the first, 0.1 to 1000 nM for the second.

`Cc1noc(C)c1-c1cnc2c(CC3CCC3)cn(-c3ccc(S(C)(=O)=O)c(F)c3)c2c1` [P-0068, 4-(3-(cyclobutylmethyl)-1-(3-fluoro-4-(methylsulfonyl)phenyl)-1H-pyrrolo[3,2-b]pyridin-6-yl)-3,5-dimethylisoxazole] and `Cc1noc(C)c1-c1cnc2c(CC3CCC3)cn(-c3ccc(C(=O)O)cc3OC(F)(F)F)c2c1` [P-0066, 4-(3-(cyclobutylmethyl)-6-(3,5-dimethylisoxazol-4-yl)-1H-pyrrolo[3,2-b]pyridin-1-yl)-3-(trifluoromethoxy)benzoic acid] fall in the same range of IC50: 0.1 to 1000 nM for the first, 0.1 to 1000 nM for the second.

`Cc1noc(C)c1-c1cnc2c(c1)c(-c1ccc(C(=O)O)cc1OC(F)(F)F)cn2[C@@H](C)c1ccccn1` [P-0070, (S)-4-(5-(3,5-dimethylisoxazol-4-yl)-1-(1-(pyridin-2-yl)ethyl)-1H-pyrrolo[2,3-b]pyridin-3-yl)-3-(trifluoromethoxy)benzoic acid] was tested, and the IC50 was 0.1 to 1000 nM.
